Source: patent US20240228489A1, “POSITIVE ALLOSTERIC MODULATORS OF THE MUSCARINIC ACETYLCHOLINE RECEPTOR M1” (Vanderbilt University, priority 2021, published 2024)

Tests used:
human mAChR M1 [1] = target: T1, human mAChR M1 (Homo sapiens, UniProt P11229); test: mAChR M1 cell-based functional assay (calcium mobilization), agonist mode: compound alone, Emax relative to acetylcholine maximum; conditions: for EC50 / Agonist Activity Human M1 EC50: human mAChR M1; for Emax: relative to the maximum for acetylcholine
T1 sequence (P11229 1-460): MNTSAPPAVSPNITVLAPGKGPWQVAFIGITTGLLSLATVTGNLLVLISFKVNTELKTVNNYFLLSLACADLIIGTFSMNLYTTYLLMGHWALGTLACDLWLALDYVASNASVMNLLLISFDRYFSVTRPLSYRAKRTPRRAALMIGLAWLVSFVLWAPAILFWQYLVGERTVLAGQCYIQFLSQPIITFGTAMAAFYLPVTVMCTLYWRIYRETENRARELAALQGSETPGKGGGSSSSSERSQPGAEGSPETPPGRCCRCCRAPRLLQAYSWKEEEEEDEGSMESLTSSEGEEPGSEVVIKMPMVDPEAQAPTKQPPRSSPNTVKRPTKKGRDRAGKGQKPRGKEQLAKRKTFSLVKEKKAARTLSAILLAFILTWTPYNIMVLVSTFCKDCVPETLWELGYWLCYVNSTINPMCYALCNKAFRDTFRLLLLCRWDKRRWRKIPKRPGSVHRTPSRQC
Excerpt: (§1) Chinese hamster ovary (CHO-K1) cells stably expressing rat (r)M1 were purchased from the American Type Culture Collection and cultured according to their indicated protocol. CHO cells stably expressing human (h)M2, hM3, and hM5 were described previously (Levey, et al., 1991); hM1 and hM4 cDNAs were purchased from Missouri S&T cDNA Resource; rM4 cDNA was provided by T. I. Bonner (National Institutes of Health, Bethesda, MD). rM2 and rM3 were cloned from a rat brain cDNA library and sequence verified. hM1, rM2, rM3, hM4, and rM4 cDNAs were used to stably transfect CHO-K1 cells purchased from the American Type Culture Collection using Lipofectamine2000. To make stable rM2, hM2, rM3, hM4, and rM4 cell lines for use in calcium mobilization assays, these cells also were stably transfected with a chimeric G-protein (Gqi5) (provided by B. R. Conklin, University of California, San Francisco) using Lipofectamine 2000. rM1, hM1, rM3, hM3, rM5, and hM5 cells were grown in Ham's F-12 medium containing 10% heat-inactivated fetal bovine serum (FBS), 20 mM HEPES, and 50 μg/mL G418 sulfate. rM2-Gqi5, hM2-Gqi5, and hM4-Gqi5 cells were grown in the same medium also containing 500 μg/mL Hygromycin B. Stable rM4-Gqi5 cells were grown in DMEM containing 10% heat-inactivated FBS, 20 mM HEPES, 400 μg/mL G418 sulfate, and 500 μg/mL Hygromycin B.
(§2) For high throughput measurement of agonist-evoked increases in intracellular calcium, CHO-K1 cells stably expressing muscarinic receptors were plated in growth medium lacking G418 and hygromycin at 15,000 cells/20 μL/well in Greiner 384-well black-walled, tissue culture (TC)-treated, clear-bottom plates (VWR). Cells were incubated overnight at 37° C. and 5% C02. The next day, cells were washed using an ELX 405 (BioTek) with four washes (80 μL) of assay buffer then aspirated to 20 μL. Next, 20 μL of 16 μM Fluo-4/acetoxymethyl ester (Invitrogen, Carlsbad, CA) prepared as a 2.3 mM stock in DMSO and mixed in a 1:1 ratio with 10% (w/v) Pluronic F-127 and diluted in assay buffer was added to the wells and the cell plates were incubated for 50 min at 37° C. and 5% C02. Dye was removed by washing with the ELX 405 (four 80 μL washes of assay buffer) then aspirated to 20 μL. Compound master plates were formatted in an 11 point CRC format (1:3 dilutions) in 100% DMSO with a starting concentration of 10 mM using the BRAVO liquid handler (Agilent). Test compound CRCs were then transferred to daughter plates (240 nL) using the Echo acoustic plate reformatter (Labcyte, Sunnyvale, CA) and then diluted into assay buffer (40 μL) to a 2× stock using a Thermo Fisher Combi (Thermo Fisher Scientific, Waltham, MA).
(§3) Calcium flux was measured using the Functional Drug Screening System (FDSS) 6000 (Hamamatsu Corporation, Tokyo, Japan) as an increase in the fluorescent static ratio. Compounds were applied to cells (20 μL, 2×) using the automated system of the FDSS 6000 at 4 s into the 300 s protocol and the data were collected at 1 Hz. At 144 s into the 300 s protocol, 10 μL of an EC20 concentration of the muscarinic receptor agonist acetylcholine was added (5×), followed by the addition of 12 μL of an EC80 concentration of acetylcholine at the 230 s time point (5×). Agonist activity was analyzed as a concentration-dependent increase in calcium mobilization upon compound addition. Emax values for agonist activity are expressed relative to the maximum for acetylcholine. Positive allosteric modulator activity was analyzed as a concentration-dependent increase in the EC20 acetylcholine response. Antagonist activity was analyzed as a concentration-dependent decrease in the EC80 acetylcholine response. Concentration-response curves were generated using a four-parameter logistical equation in XLfit curve fitting software (IDBS, Bridgewater, NJ) for Excel (Microsoft, Redmond, WA) or Prism (GraphPad Software, Inc., San Diego, CA).

human mAChR M1 [2] = target: T1, human mAChR M1; test: mAChR M1 cell-based functional assay (calcium mobilization), PAM mode: increase in the EC20 acetylcholine response
Excerpt: as §1, §2
as §3, with “CA). […]” for “CA).”

What does the source list for `[2H]C1([2H])c2ncccc2C(=O)N1Cc1ccc(-c2ccc(C)c3nn(C)cc23)cc1C` [Compound 30, 6-(4-(2,7-dimethyl-2H-indazol-4-yl)-2-methylbenzyl)-6,7-dihydro-5H-pyrrolo[3,4-b]pyridin-5-one-7,7-d2]?
EC50 (human mAChR M1 [1]): > 10000 nM; Emax (human mAChR M1 [1]): 22%; EC50 (human mAChR M1 [2]): 1090 nM; Emax (human mAChR M1 [2]): 79%

How did the EC50 (human mAChR M1 [1]) turn out when `[2H]C1([2H])c2ncccc2C(=O)N1Cc1c(F)cc(-c2cccc3nn(C([2H])([2H])[2H])cc23)cc1F` [Compound 31, 6-(2,6-Difluoro-4-(2-(methyl-d3)-2H-indazol-4-yl)benzyl)-6,7-dihydro-5H-pyrrolo[3,4-b]pyridin-5-one-7,7-d2] was run?
The EC50 was 8600 nM.

And the Emax (human mAChR M1 [1])?
Its Emax is 28%.

What about the EC50 (human mAChR M1 [2]) of the same compound?
Its EC50 is 263 nM.

And the Emax (human mAChR M1 [2])?
Its Emax is 84%.

For `[2H]C1([2H])c2ncccc2C(=O)N1Cc1c(F)cc(-c2cc(C)cc3nn(C)cc23)cc1F` [Compound 32, 6-(4-(2,6-dimethyl-2H-indazol-4-yl)-2,6-difluorobenzyl)-6,7-dihydro-5H-pyrrolo[3,4-b]pyridin-5-one-7,7-d^2], which EC50 (human mAChR M1 [1]) is on record?
Its EC50 is 5460 nM.

And the Emax (human mAChR M1 [1])?
Its Emax is 16%.

And the EC50 (human mAChR M1 [2])?
Its EC50 is 594 nM.

What about the Emax (human mAChR M1 [2]) of the same compound?
Its Emax is 86%.

How did the EC50 (human mAChR M1 [1]) turn out when `[2H]C1([2H])c2ncccc2C(=O)N1Cc1ccc(-c2ccc3nn(C)cc3c2)cc1C` [Compound 33, 6-(2-methyl-4-(2-methyl-2H-indazol-5-yl)benzyl)-6,7-dihydro-5H-pyrrolo[3,4-b]pyridin-5-one-7,7-d2] was run?
Its EC50 is > 10000 nM.

And the Emax (human mAChR M1 [1])?
The Emax was 2%.

And the EC50 (human mAChR M1 [2])?
Its EC50 is 392 nM.

What about the Emax (human mAChR M1 [2]) of the same compound?
Its Emax is 72%.

Which results are given for `[2H]C1([2H])c2ncccc2C(=O)N1Cc1ccc(-c2cnc3nn(C)cc3c2)cc1C` [Compound 34, 6-(2-methyl-4-(2-methyl-2H-pyrazolo[3,4-b]pyridin-5-yl)benzyl)-6,7-dihydro-5H-pyrrolo[3,4-b]pyridin-5-one-7,7-d2]?
EC50 (human mAChR M1 [1]): > 10000 nM; Emax (human mAChR M1 [1]): 3%; EC50 (human mAChR M1 [2]): 2000 nM; Emax (human mAChR M1 [2]): 82%

What does the source list for `[2H]C1([2H])c2ncccc2C(=O)N1Cc1c(F)cc(-c2cccc3c2cnn3C)cc1F` [Compound 35, 6-(2,6-difluoro-4-(1-methyl-1H-indazol-4-yl)benzyl)-6,7-dihydro-5H-pyrrolo[3,4-b]pyridin-5-one-7,7-d^2]?
EC50 (human mAChR M1 [1]): > 10000 nM; Emax (human mAChR M1 [1]): 2%; EC50 (human mAChR M1 [2]): 2420 nM; Emax (human mAChR M1 [2]): 63%

Which “Agonist Activity Human M1 EC50” value (human mAChR M1 [1]) does the source give for `[2H]C1([2H])c2ncccc2C(=O)N1Cc1c(F)cc(-c2ccc(F)c3nn(C)cc23)cc1F` [Compound 36, 6-(2,6-difluoro-4-(7-fluoro-2-methyl-2H-indazol-4-yl)benzyl)-6,7-dihydro-5H-pyrrolo[3,4-b]pyridin-5-one-7,7-d2] here?
Its value is “Inactive”.

And the Emax (human mAChR M1 [1])?
Its Emax is 5%.

What about the EC50 (human mAChR M1 [2]) of the same compound?
Its EC50 is 476 nM.

What about the Emax (human mAChR M1 [2]) of the same compound?
The Emax was 84%.

How did the “Agonist Activity Human M1 EC50” value (human mAChR M1 [1]) turn out when `[2H]C1([2H])c2ncccc2C(=O)N1Cc1c(F)cc(-c2c(F)ccc3nn(C)cc23)cc1F` [Compound 37, 6-(2,6-difluoro-4-(5-fluoro-2-methyl-2H-indazol-4-yl)benzyl)-6,7-dihydro-5H-pyrrolo[3,4-b]pyridin-5-one-7,7-d2] was run?
The value was “Inactive”.

And the Emax (human mAChR M1 [1])?
Its Emax is 3%.

And the EC50 (human mAChR M1 [2])?
The EC50 was 2300 nM.

And the Emax (human mAChR M1 [2])?
The Emax was 64%.

With `[2H]C1([2H])c2ncccc2C(=O)N1Cc1c(F)cc(-c2ccc(OC)c3n[nH]cc23)cc1F` [Compound 38, 6-(2,6-difluoro-4-(7-methoxy-2H-indazol-4-yl)benzyl)-6,7-dihydro-5H-pyrrolo[3,4-b]pyridin-5-one-7,7-d2] as the compound, how does the EC50 (human mAChR M1 [1]) read?
Its EC50 is > 10000 nM.

And the Emax (human mAChR M1 [1])?
Its Emax is 2%.

What about the EC50 (human mAChR M1 [2]) of the same compound?
Its EC50 is 436 nM.

And the Emax (human mAChR M1 [2])?
Its Emax is 69%.

With `[2H]C1([2H])c2ncccc2C(=O)N1Cc1c(F)cc(-c2ccc(OC)c3nn(C)cc23)cc1F` [Compound 39, 6-(2,6-difluoro-4-(7-methoxy-2-methyl-2H-indazol-4-yl)benzyl)-6,7-dihydro-5H-pyrrolo[3,4-b]pyridin-5-one-7,7-d2] as the compound, how does the “Agonist Activity Human M1 EC50” value (human mAChR M1 [1]) read?
Its value is “Inactive”.

And the Emax (human mAChR M1 [1])?
The Emax was 9%.

What about the EC50 (human mAChR M1 [2]) of the same compound?
The EC50 was 112 nM.

And the Emax (human mAChR M1 [2])?
The Emax was 85%.

Which results are given for `[2H]C1([2H])c2ncccc2C(=O)N1Cc1c(F)cc(-c2ccc(Cl)c3nn(C)cc23)cc1F` [Compound 40, 6-(4-(7-chloro-2-methyl-2H-indazol-4-yl)-2,6-difluorobenzyl)-6,7-dihydro-5H-pyrrolo[3,4-b]pyridin-5-one-7,7-d2]?
Agonist Activity Human M1 EC50 (human mAChR M1 [1]): Inactive; Emax (human mAChR M1 [1]): 1%; EC50 (human mAChR M1 [2]): 233 nM; Emax (human mAChR M1 [2]): 66%

`[2H]C1([2H])c2ncccc2C(=O)N1Cc1c(F)cc(-c2ccc(C(F)(F)F)c3nn(C)cc23)cc1F` [Compound 41, 6-(2,6-difluoro-4-(2-methyl-7-(trifluoromethyl)-2H-indazol-4-yl)benzyl)-6,7-dihydro-5H-pyrrolo[3,4-b]pyridin-5-one-7,7-d2] was tested. Which “Agonist Activity Human M1 EC50” value (human mAChR M1 [1]) did it give?
The value was “Inactive”.

And the Emax (human mAChR M1 [1])?
Its Emax is 2%.

What about the EC50 (human mAChR M1 [2]) of the same compound?
Its EC50 is 604 nM.

And the Emax (human mAChR M1 [2])?
The Emax was 65%.

What does the source list for `[2H]C1([2H])c2ncccc2C(=O)N1Cc1c(F)cc(-c2cccc3nn(CC)cc23)cc1F` [Compound 42, 6-(4-(2-ethyl-2H-indazol-4-yl)-2,6-difluorobenzyl)-6,7-dihydro-5H-pyrrolo[3,4-b]pyridin-5-one-7,7-d2]?
EC50 (human mAChR M1 [1]): > 10000 nM; Emax (human mAChR M1 [1]): 13%; EC50 (human mAChR M1 [2]): 371 nM; Emax (human mAChR M1 [2]): 81%

Which EC50 (human mAChR M1 [1]) does the source give for `[2H]C1([2H])c2ncccc2C(=O)N1Cc1c(F)cc(-c2cccc3nn(C(C)C)cc23)cc1F` [Compound 43, 6-(2,6-difluoro-4-(2-isopropyl-2H-indazol-4-yl)benzyl)-6,7-dihydro-5H-pyrrolo[3,4-b]pyridin-5-one-7,7-d2] here?
The EC50 was > 10000 nM.

What about the Emax (human mAChR M1 [1]) of the same compound?
The Emax was 2%.

What about the EC50 (human mAChR M1 [2]) of the same compound?
Its EC50 is 1170 nM.

And the Emax (human mAChR M1 [2])?
The Emax was 86%.

Which results are given for `[2H]C1([2H])c2ncccc2C(=O)N1Cc1c(F)cc(-c2cccc3nn(CF)cc23)cc1F` [Compound 44, 6-(2,6-difluoro-4-(2-(fluoromethyl)-2H-indazol-4-yl)benzyl)-6,7-dihydro-5H-pyrrolo[3,4-b]pyridin-5-one-7,7-d2]?
EC50 (human mAChR M1 [1]): > 10000 nM; Emax (human mAChR M1 [1]): 28%; EC50 (human mAChR M1 [2]): 413 nM; Emax (human mAChR M1 [2]): 78%
